The values below come from PubChem BioAssay (NCI).

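Protocol summary: plate cells (96-well), add compound at 5 concentrations, incubate 48 h, interpolate endpoints linearly. TGI marks complete inhibition of growth.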 Bounds are passed on as bounds.

The first assay has as its system IGROV1 ovarian. In words: DTP human tumour cell line panel, 48 h.
By TGI is commonly meant the concentration giving total growth inhibition. A high value points to lower sensitivity of the cells. In the case of `COC(=O)c1cc(CC(C)C)c2c(c1)[nH]c1ccccc12`, the TGI was over 100 µM.

The compound `C[N+](C)(C)CC(=O)N/N=c1\cc(C(=O)Nc2ccc(N=O)cc2C#N)oc2cc(O)ccc12` came in with a TGI of over 100 µM.

`N#CCCN(c1ccc(C=Nc2cccc([N+](=O)[O-])c2)cc1)S(=O)(=O)c1ccccc1` registered a total growth inhibition concentration (TGI) of over 100 µM.

In the case of `O=C1CC2(C[C@@H]3CCCCCCCCC[C@@H](C3)C2)N1` (stereo partly drawn), the concentration for total growth inhibition (TGI) is 27.9 µM. That is a double-digit micromolar value.

In turn, `CC(C)C(Sc1nc(-c2ccccc2)c(-c2ccccc2)[nH]1)C(=O)NNC(=S)Nc1ccccc1` (stereo not drawn) returned a total growth inhibition concentration (TGI) of 35.7 µM.

As to `COC1O[C@H]2CCN(C(=O)OCc3ccccc3)[C@H]2[C@H]1OCc1ccccc1` (stereo partly drawn), the TGI was over 100 µM.

In turn, `CC12CC(c3ccccc3O1)C(C(=O)Nc1ccc(F)cc1)C(=O)N2` (stereo not drawn) registered a concentration for total growth inhibition (TGI) of over 100 µM.

Compound `O=c1c2c3ccccc3[nH]c2c2cccc3c2n1CCC3` gave a total growth inhibition concentration (TGI) of over 100 µM.

In turn, `COc1ccc(C2C(Cl)C(=O)N2NC(=O)c2ccc(NC(C)=O)cc2)cc1` (stereo not drawn) yielded a concentration for total growth inhibition (TGI) of over 100 µM.

`c1ccc([P+](CCNCCNCC[P+](c2ccccc2)(c2ccccc2)c2ccccc2)(c2ccccc2)c2ccccc2)cc1` showed a concentration for total growth inhibition (TGI) of over 100 µM.

Turning to `COc1ccc(-c2c(C#N)c(N)n(C3OC(CO)C(O)C(O)C3O)c(=S)c2C#N)cc1` (stereo not drawn), the TGI was over 100 µM.

In turn, `c1ccc(C[P+]2(c3ccccc3)c3ccccc3-c3ccccc32)cc1` had a TGI of over 100 µM.

In turn, `Cc1c(Cl)cccc1NC(=O)C(=O)C1C(=O)CC(C)(C)CC1=O` yielded a TGI of over 100 µM.

On to `O=C1O[C@@H](c2ccccc2)C[C@@H]1CN1CCOCC1`, for which the total growth inhibition concentration (TGI) is over 100 µM.

`COc1ccc2nc(-c3ccc(OCc4ccccc4)cc3)ccc2c1` gave a TGI of over 100 µM.

The compound `COC1(C)CC2N(C(=O)c3ccccc3)N=C(c3ccccc3)CC2(C)O1` (stereo not drawn) displayed a total growth inhibition concentration (TGI) of over 100 µM.

`O=C1CC(C(O)CO)CC(=O)N1` (stereo not drawn) had a TGI of over 100 µM.

`Cc1c(Cl)ccc2c(=O)c3cccc(CC(=O)O)c3oc12`: the total growth inhibition concentration (TGI) is over 100 µM.

For `C/C(=N\NC(=S)NC(C)C)c1nc2ncccc2[nH]1`, the concentration for total growth inhibition (TGI) was over 80.1 µM.

`Nc1ccccc1Nc1ccccc1C(=O)[O-].Nc1ccccc1Nc1ccccc1C(=O)[O-].[Cu+2]` displayed a total growth inhibition concentration (TGI) of over 100 µM.

As to `CCOC(=O)C(OCC1CC=CCC1)Sc1ccccc1` (stereo not drawn), the concentration for total growth inhibition (TGI) is over 100 µM.

For `CCN(CC)CCn1c2cc3c(cc2c(=O)c2cccnc21)OCCO3`, the concentration for total growth inhibition (TGI) was over 10 µM.

Consider `O=C(NS(=O)(=O)Nc1ccc(Cl)cc1)OCc1ccc(Cl)cc1Cl`, for which the total growth inhibition concentration (TGI) was 52.8 µM.

The next assay deals with RPMI-8226 leukemia. Nature of the assay: DTP human tumour cell line panel, 48 h.
As for `Cc1ccc2c(c1)nc(N)n[n+]2[O-]`, the TGI was over 100 µM.

`Cc1cn(C2CC(N)C(CN)O2)c(=O)[nH]c1=O` (stereo not drawn) displayed a total growth inhibition concentration (TGI) of over 100 µM.

In the case of `Nc1nc2ncc(SCc3ccc(C(=O)NC(CCC(=O)O)C(=O)O)cc3)cc2c(=O)[nH]1` (stereo not drawn), the concentration for total growth inhibition (TGI) is over 100 µM.

The compound `CC(C)CC(N)C(=O)OCN1C(=O)C2C3C=CC(C2C1=O)C1C2C(=O)N(COC(=O)C(N)CC(C)C)C(=O)C2C31` (stereo not drawn) displayed a total growth inhibition concentration (TGI) of over 78.6 µM.

With `CC(C)(C)C(=O)C(CC(=O)c1ccccc1)C(=O)C(C)(C)C`, the concentration for total growth inhibition (TGI) is over 100 µM.

In turn, `N#CCCN(c1ccc(C=Nc2cccc([N+](=O)[O-])c2)cc1)S(=O)(=O)c1ccccc1` had a concentration for total growth inhibition (TGI) of over 100 µM.

On to `COc1ccc(/C(=C/n2ccnc2)C(=O)c2ccc(OC)c(OC)c2)cc1`, for which the total growth inhibition concentration (TGI) was over 100 µM.

The compound `O=C1CC2(C[C@@H]3CCCCCCCCC[C@@H](C3)C2)N1` (stereo partly drawn) returned a TGI of 51.1 µM. That is a double-digit micromolar value.

`CC(C)C(Sc1nc(-c2ccccc2)c(-c2ccccc2)[nH]1)C(=O)NNC(=S)Nc1ccccc1` (stereo not drawn) had a TGI of 39.6 µM. The TGI values of the last two compounds are within 1.5-fold of each other.

In turn, `COC1O[C@H]2CCN(C(=O)OCc3ccccc3)[C@H]2[C@H]1OCc1ccccc1` (stereo partly drawn) showed a TGI of over 100 µM.

`CC12CC(c3ccccc3O1)C(C(=O)Nc1ccc(F)cc1)C(=O)N2` (stereo not drawn) gave a concentration for total growth inhibition (TGI) of over 100 µM.

The compound `c1ccc([P+](CCNCCNCC[P+](c2ccccc2)(c2ccccc2)c2ccccc2)(c2ccccc2)c2ccccc2)cc1` registered a TGI of over 100 µM.

The compound `COc1ccc(-c2c(C#N)c(N)n(C3OC(CO)C(O)C(O)C3O)c(=S)c2C#N)cc1` (stereo not drawn) yielded a TGI of over 100 µM.

Compound `c1ccc(C[P+]2(c3ccccc3)c3ccccc3-c3ccccc32)cc1` returned a total growth inhibition concentration (TGI) of over 100 µM.

With `Cc1c(Cl)cccc1NC(=O)C(=O)C1C(=O)CC(C)(C)CC1=O`, the TGI is over 100 µM.

In the case of `O=C1O[C@@H](c2ccccc2)C[C@@H]1CN1CCOCC1`, the TGI is over 100 µM.

The compound `COc1ccc2nc(-c3ccc(OCc4ccccc4)cc3)ccc2c1` registered a TGI of over 100 µM.

Turning to `CCOc1ccc(N/C(=C(/C(Cl)=C(/Cl)NCCN)[N+](=O)[O-])n2nnc3ccccc32)cc1`, the TGI was over 100 µM.

Compound `COC1(C)CC2N(C(=O)c3ccccc3)N=C(c3ccccc3)CC2(C)O1` (stereo not drawn) gave a TGI of over 100 µM.

`O=C1CC(C(O)CO)CC(=O)N1` (stereo not drawn): the TGI was over 100 µM.

Compound `Cc1c(Cl)ccc2c(=O)c3cccc(CC(=O)O)c3oc12` displayed a TGI of over 100 µM.

Take `C/C(=N\NC(=S)NC(C)C)c1nc2ncccc2[nH]1`: the TGI was over 100 µM.

For the compound `Nc1ccccc1Nc1ccccc1C(=O)[O-].Nc1ccccc1Nc1ccccc1C(=O)[O-].[Cu+2]`, the TGI was over 100 µM.

`CCOC(=O)C(OCC1CC=CCC1)Sc1ccccc1` (stereo not drawn) had a total growth inhibition concentration (TGI) of over 100 µM.

`CCN(CC)CCn1c2cc3c(cc2c(=O)c2cccnc21)OCCO3`: the total growth inhibition concentration (TGI) is over 10 µM.

Consider `O=C(NS(=O)(=O)Nc1ccc(Cl)cc1)OCc1ccc(Cl)cc1Cl`, for which the TGI was over 100 µM.

The subject of the next assay is OVCAR-8 ovarian. In words: DTP human tumour cell line panel, 48 h.
As to `Cc1ccc2c(c1)nc(N)n[n+]2[O-]`, the TGI was over 100 µM.

`Cc1cn(C2CC(N)C(CN)O2)c(=O)[nH]c1=O` (stereo not drawn) gave a concentration for total growth inhibition (TGI) of over 100 µM.

`Nc1nc2ncc(SCc3ccc(C(=O)NC(CCC(=O)O)C(=O)O)cc3)cc2c(=O)[nH]1` (stereo not drawn) registered a TGI of over 100 µM.

For the compound `CC(C)CC(N)C(=O)OCN1C(=O)C2C3C=CC(C2C1=O)C1C2C(=O)N(COC(=O)C(N)CC(C)C)C(=O)C2C31` (stereo not drawn), the TGI was over 100 µM.

`CC(C)(C)C(=O)C(CC(=O)c1ccccc1)C(=O)C(C)(C)C` registered a total growth inhibition concentration (TGI) of over 100 µM.

On to `COC(=O)c1cc(CC(C)C)c2c(c1)[nH]c1ccccc12`, for which the total growth inhibition concentration (TGI) is over 100 µM.

With `C[N+](C)(C)CC(=O)N/N=c1\cc(C(=O)Nc2ccc(N=O)cc2C#N)oc2cc(O)ccc12`, the total growth inhibition concentration (TGI) is over 100 µM.

In turn, `N#CCCN(c1ccc(C=Nc2cccc([N+](=O)[O-])c2)cc1)S(=O)(=O)c1ccccc1` showed a concentration for total growth inhibition (TGI) of over 100 µM.

`COc1ccc(/C(=C/n2ccnc2)C(=O)c2ccc(OC)c(OC)c2)cc1` displayed a total growth inhibition concentration (TGI) of over 100 µM.

Take `O=C1CC2(C[C@@H]3CCCCCCCCC[C@@H](C3)C2)N1` (stereo partly drawn): the TGI was 33.5 µM.

The compound `CC(C)C(Sc1nc(-c2ccccc2)c(-c2ccccc2)[nH]1)C(=O)NNC(=S)Nc1ccccc1` (stereo not drawn) yielded a TGI of over 100 µM.

With `COC1O[C@H]2CCN(C(=O)OCc3ccccc3)[C@H]2[C@H]1OCc1ccccc1` (stereo partly drawn), the TGI is over 100 µM.

Turning to `CC12CC(c3ccccc3O1)C(C(=O)Nc1ccc(F)cc1)C(=O)N2` (stereo not drawn), the concentration for total growth inhibition (TGI) is over 100 µM.

Regarding `O=c1c2c3ccccc3[nH]c2c2cccc3c2n1CCC3`, the TGI is over 100 µM.
